Assays:
Lysozyme = biological target: T1, Lysozyme (Gallus gallus, UniProt P00698); assay: Lysozyme assay (Biovision Lysozyme inhibitor screening kit K237); type: biochemical; conditions: 10 concentrations, 5 nM to 100 μM, result in words
T1 construct: purchased Biovision K237
Protocol: (§1) Enzyme screens were performed by SAMDI Tech (contract research organization); enzyme assays were performed in a 20 μL volume in 384-well low-volume polypropylene microtiter plates (Greiner Bio-One) at room temperature. The enzymes [Arginase 1 (ARG1), Lysine demethylase 4C (KDM4C), MAP/microtubule affinity-regulating kinase 4 (MARK4), Histone-Lysine N-methyltransferase (NSD2), Tyrosine-protein phosphatase non-receptor type 1 (PTP1B), and Sirtuin-3 (SIRT3)] were incubated with compounds for 30 min prior to initiation of the reaction by the addition of substrate and cofactors (if required). Reactions were quenched by the addition of 0.5% formic acid (final) with subsequent neutralization using 1% sodium bicarbonate (final). For SAMDI MS analysis, 2 μL of each reaction was transferred using a 384-channel automated liquid handler to SAMDI biochip arrays functionalized with a neutravidin-presenting self-assembled monolayer. The preparation of SAMDI biochip arrays has been previously described ([41], [42], [49]). The SAMDI arrays were incubated for 1 h in a humidified chamber to allow specific immobilization of the biotinylated substrates and products; they were then purified by washing with ultrafiltered water (50 μL/spot) and dried with compressed air. A matrix comprising α-Cyano-4-hydroxycinnamic acid in 80% acetonitrile: 20% aqueous ammonium citrate (10 mg/mL final) was applied in an automated format by dispensing 50 nL to each spot in the array. SAMDI MS was performed using reflector positive mode on an AB Sciex TOF-TOF 5800 System (AB Sciex, Framingham, MA) with 400 shots/spot analyzed in a random raster sampling. For data analysis, the area under the curves (AUCs) for the product peak and substrate peak were calculated using the TOF/TOF Series Explorer (AB Sciex), and the amount of product formed was calculated using the equation AUC product / (AUC product + AUC Substrate). Negative controls were pre-quenched with 0.5% formic acid (final). Lysozyme assay was performed using the manufacturer’s instructions (Biovision Lysozyme inhibitor screening kit K237). Flavonoids were acquired from Sigma-Aldrich and Seleckchem.
(§2) IC50 values of enzyme inhibition. Inhibition of the enzymes was measured at 10 concentration values in the range of 5 nM to 100 μM for each compound and enzyme, with two technical replicates; the percent inhibition values were determined by SAMDI software. Sigmoidal curves were fitted to the percent inhibition vs log10 (concentration) series, and IC50 values were determined at the crossing point of 50 % inhibition. Manual verification of the fits and the IC50 values was performed. The resulting IC50 values fell into the following categories: (a) within the assayed range of 5nM to 100μM (26 % of fits), (b) IC50 could be extrapolated, IC50 > 100μM (12 % of fits), or (c) fitting was not possible because all values were at baseline (62 % of fits). Compound efficacy ranking. First, for each IC50 value per compound and enzyme, a Z-score was calculated based on the log10 (IC50) value and that of the compounds that produced a successful readout for enzyme i , according to Equation 1: […]

[1] = biological target: T2, Lysine demethylase 4C (KDM4C) (Homo sapiens, UniProt Q9H3R0); assay: Enzyme activity assay (SAMDI-MS), KDM4C; type: biochemical; conditions: 10 concentrations, 5 nM to 100 μM, compounds incubated with enzyme 30 min, result in words
T2 sequence (Q9H3R0 1-1056): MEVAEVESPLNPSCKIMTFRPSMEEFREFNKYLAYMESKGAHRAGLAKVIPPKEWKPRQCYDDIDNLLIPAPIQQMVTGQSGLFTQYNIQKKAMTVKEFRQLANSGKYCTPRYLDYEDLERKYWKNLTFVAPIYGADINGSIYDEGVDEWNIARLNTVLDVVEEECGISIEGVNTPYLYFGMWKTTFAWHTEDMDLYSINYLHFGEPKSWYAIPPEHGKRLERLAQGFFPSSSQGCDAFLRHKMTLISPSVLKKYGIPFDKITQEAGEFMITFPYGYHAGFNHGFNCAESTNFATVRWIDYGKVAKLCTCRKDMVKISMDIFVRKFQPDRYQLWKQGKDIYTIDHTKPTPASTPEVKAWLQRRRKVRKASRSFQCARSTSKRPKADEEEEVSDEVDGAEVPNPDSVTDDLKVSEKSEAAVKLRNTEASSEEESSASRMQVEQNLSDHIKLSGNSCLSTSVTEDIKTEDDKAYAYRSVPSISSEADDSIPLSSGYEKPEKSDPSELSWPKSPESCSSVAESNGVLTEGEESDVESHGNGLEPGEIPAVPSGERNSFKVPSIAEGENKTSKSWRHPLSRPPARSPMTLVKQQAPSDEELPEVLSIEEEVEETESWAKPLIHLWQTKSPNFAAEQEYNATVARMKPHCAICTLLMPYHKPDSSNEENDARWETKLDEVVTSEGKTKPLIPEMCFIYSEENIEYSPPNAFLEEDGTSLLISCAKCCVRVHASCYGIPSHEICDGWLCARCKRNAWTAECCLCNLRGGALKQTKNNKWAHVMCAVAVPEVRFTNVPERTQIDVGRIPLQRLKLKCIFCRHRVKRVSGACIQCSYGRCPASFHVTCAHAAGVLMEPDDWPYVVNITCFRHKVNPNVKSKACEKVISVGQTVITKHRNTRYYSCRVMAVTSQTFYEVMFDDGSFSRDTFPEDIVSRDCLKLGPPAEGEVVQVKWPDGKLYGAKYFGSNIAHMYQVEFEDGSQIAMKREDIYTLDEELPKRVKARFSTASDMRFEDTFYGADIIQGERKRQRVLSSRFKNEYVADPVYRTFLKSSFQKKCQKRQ
Protocol: as §1, §2

T1 sequence (P00698 19-147): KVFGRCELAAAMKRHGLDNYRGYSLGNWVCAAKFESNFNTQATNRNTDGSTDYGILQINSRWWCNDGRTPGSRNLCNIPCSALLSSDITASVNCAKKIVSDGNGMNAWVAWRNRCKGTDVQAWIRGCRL

O=c1c(O[C@@H]2O[C@H](CO)[C@@H](O)[C@H](O)[C@H]2O)c(-c2ccc(O)c(O)c2)oc2cc(O)cc(O)c12 [isoquercitrin]
inhibition of enzyme activity, Lysozyme (Lysozyme): blocked | inhibition of enzyme activity, KDM4C [1]: blocked

O=c1c(O)c(-c2ccc(O)c(O)c2)oc2cc(O)cc(O)c12 [quercetin]
inhibition of enzyme activity, Lysozyme (Lysozyme): blocked | inhibition of enzyme activity, Lysozyme (Lysozyme; listed as Quercetin): inhibited | inhibition of enzyme activity, Lysozyme (Lysozyme; listed as Quercitin): concentration-dependent inhibition | inhibition of enzyme activity, KDM4C [1]: blocked | inhibition of enzyme activity, KDM4C ([1]; listed as Quercetin): inhibited | inhibition of enzyme activity, KDM4C ([1]; listed as Quercitin): concentration-dependent inhibition

C[C@@H]1O[C@@H](Oc2c(-c3ccc(O)c(O)c3)oc3cc(O)cc(O)c3c2=O)[C@H](O)[C@H](O)[C@H]1O [quercitrin]
inhibition of enzyme activity, Lysozyme (Lysozyme): blocked | inhibition of enzyme activity, KDM4C [1]: blocked
